Earlier results on 1 molecule are cited in US6627153B1, “Integrated assay for organ function, drugs and/or one or more metabolites” (priority 1999, dated 2003).

The conditions of this series: following oral administration; within the first 24 hours.

In the case of `CN(C)C(=N)N=C(N)N` [Metformin], the “absorbed drug eliminated via the renal route” value was 90%.
